These results are taken from patent US20230122911A1, “FORMULATIONS OF ENZALUTAMIDE” (Astellas Pharma Inc., priority 2012, published 2023).

The nature of data set [1]: Microcentrifuge dissolution test in Model Fasted Duodenal Solution. Format: physicochemical. The settings on record: for Enzalutamide Concentration / AUC90 (area under the curve at 90 minutes) / Cmax,90 (maximum drug concentration through 90 minutes): MFDS pH 6.5, dose 200 µg/ml; for AUC90 (area under the curve at 90 minutes) / Cmax,90 (maximum drug concentration through 90 minutes): Table 4.2; for Average enzalutamide concentration: Table 9.1. The source says: The in vitro dissolution test to evaluate enhanced drug concentration in aqueous solution can be conducted by (1) adding with agitation a sufficient quantity of control composition, that is, the crystalline enzalutamide alone, to the in vitro test medium, typically MFD or PBS solution, to determine the maximum concentration of the enzalutamide achieved under the conditions of the test: (2) adding with agitation a sufficient quantity of test composition (e.g., the enzalutamide and polymer) in an equivalent test medium, such that if all the enzalutamide dissolved, the theoretical concentration of enzalutamide would exceed the observed maximum concentration of enzalutamide by a factor of about 20; and (3) comparing the measured MDC and/or aqueous concentration versus time AUC90 of the test composition in the test medium with the maximum concentration, and/or the aqueous concentration versus time AUC90 of the control composition. In conducting such a dissolution test, the amount of test composition or control composition used is an amount such that if all of the enzalutamide dissolved, the test enzalutamide concentration would be at least about 20-fold that of the control enzalutamide concentration.
The concentration of dissolved enzalutamide is typically measured as a function of time by sampling the test medium and plotting enzalutamide concentration in the test medium vs. time so that the MDC can be ascertained. The MDC is taken to be the maximum value of dissolved enzalutamide measured over the duration of the test. The enzalutamide concentration versus time AUC90 is calculated by integrating the concentration versus time curve over any 90-minute time period between the time of introduction of the composition into the aqueous use environment (time equals zero) and 270 minutes following introduction to the use environment (time equals 270 minutes). Typically, when the composition reaches its MDC rapidly, in less than about 30 minutes, the time interval used to calculate AUC90 is from time equals zero to time equals 90 minutes. However, if the AUC90 over any 90-minute time period described above of a composition meets the criteria of compositions described herein, then the composition is included in compositions of this disclosure. The time period 270 min is chosen because of its physiological relevance. Drug absorption in mammals generally occurs in the small intestine, and the small intestinal transit time in humans is approximately 4.5 hr, or 270 min.
To avoid large enzalutamide particulates which would give an erroneous determination, the test solution is either filtered or centrifuged. “Dissolved enzalutamide” is typically taken as that material that either passes a 0.45 micron syringe filter or, alternatively, the material that remains in the supernatant following centrifugation. Filtration can be conducted using a 13 mm, 0.45 micron polyvinylidine difluoride syringe filter, such as the filter sold by Scientific Resources under the trademark TITAN™. Centrifugation is typically carried out in a polypropylene microcentrifuge tube by centrifuging at 13.000 G for 60 seconds. Other similar filtration or centrifugation methods can be employed and useful results obtained. For example, using other types of microfilters may yield values somewhat higher or lower (+/- 10-40%) than that obtained with the filter specified above but will still allow identification of dispersions. It is recognized that this definition of “dissolved enzalutamide” encompasses not only monomeric solvated enzalutamide molecules but also a wide range of species such as polymer/enzalutamide assemblies that have submicron dimensions such as enzalutamide aggregates, aggregates of mixtures of polymer and enzalutamide, micelles, polymeric micelles, colloidal particles, polymer/enzalutamide complexes, and other such enzalutamide-containing species that are present in the filtrate or supernatant in the specified dissolution test. […]

Data set [2] in a line: Relative bioavailability of amorphous drug and HME dispersions in rats (Example 13). It is filed as in vivo, rat. The following applies: oral gavage 20 mg/kg; for Mean AUC0-inf: rat plasma; for Bioavailability (Mean AUC0-inf/IV Mean AUC0-inf): rat. The protocol:
Six groups of jugular vein-cannulated CD® rats (n=6 per group) were dosed six enzalutamide formulations by oral gavage, at a dose of 20 mg/kg, in a volume of 2 ml/kg. with the exception of one group which was dosed intravenously via tail vein. Blood samples were obtained at 1, 3, 6, 12, 24, 36, 48, 60, and 72 hr post-dose.
The analytes, enzalutamide, MDPC0002, and MDPC0001 and internal standards (IS), N-^13CD3-enzalutamide, MDPC0002-^13CD3. and MDPC0001-^13CD3 were extracted from […] of rat plasma by a liquid-liquid extraction procedure. Internal standard working solution (25.0 µL) was added to all wells except the matrix blank. A 25.0 µL-volume of acetonitrile was added all matrix blank samples. After adding 200 µL of 5% sodium bicarbonate in water buffer solution, the plate was vortexed for approximately 10 seconds. A Tomtec Quadra 96-well pipettor was used to add 1.050 mL of methyl tert-butyl ether (MTBE) to all wells, mixed, and approximately 1.00 mL of the organic layer was transferred to a clean 96-well plate. The samples were evaporated under heated nitrogen and reconstituted with 250 µL of 0.1% formic acid in methanol/water (40:60, v/v). The plate was covered and gently vortexed for approximately 10 seconds. The extracts were chromatographed under reverse phase conditions on an ACE 5 C18 HPLC 5 µm, 2.1 x 30 mm column. The compounds were detected and quantified by tandem mass spectrometry in positive ion mode on an MDS Sciex API 3000 equipped with a Turbo IONSPRAY® probe. Calibration curves were obtained by performing a linear regression (weighted ⅟x^2) of the data from the calibration standards.
Plasma enzalutamide concentration vs. time curves were prepared, and values for the following parameters were determined. Cmax is the highest enzalutamide concentration observed for each rat. Tmax is the time that Cmax is first achieved. AUC0-72 is the area under the plasma enzalutamide concentration vs. time plot out to 72 hr post-dosing.

The nature of data set [3]: Crystallinity by PXRD (and DSC). Format: physicochemical. The following applies: after spray-drying.
The nature of data set [4]: Microcentrifuge dissolution before and after suspension for 2 hr in aqueous 0.5% methylcellulose. Format: physicochemical. As to the method:
Drugs and drug formulations are sometimes dosed as aqueous suspensions, particularly for pediatric patients. The ability of various enzalutamide SDDs to retain their ability to maintain drug supersaturation in vitro was assessed by using the microcentrifuge dissolution test to measure drug dissolution after suspension in 0.5% methylcellulose in water for 2 hours. Methylcellulose is a standard viscosifying suspending agent which is used to maintain drug particles in suspension in oral suspension dosage forms. The table below presents in vitro dissolution performance before and after suspension in 0.5% methylcellulose.

Where [5] appears, read: listed as Amorphous (spray-dried) enzalutamide.
Setting [6] is: 0 hr, before suspension in 0.5% methylcellulose.
Where [7] appears, read: after suspension for 2 hr in aqueous 0.5% methylcellulose.
Where [8] appears, read: listed as Spray-dried amorphous drug.

With `CNC(=O)c1ccc(N2C(=S)N(c3ccc(C#N)c(C(F)(F)F)c3)C(=O)C2(C)C)cc1F` [Control 1, 4-{3-[4-cyano-3-(trifluoromethyl)phenyl]-5,5-dimethyl-4-oxo-2-sulfanylideneimidazolidin-1-yl}-2-fluoro-N-methylbenzamide], the “Enzalutamide Concentration” value came to 1 µg/mL in data set [1] (4 min); 3 µg/mL in data set [1] (10 min); 5 µg/mL in data set [1] (20 min); 6 µg/mL in data set [1] (40 min); 7 µg/mL in data set [1] (90 min); 9 µg/mL in data set [1] (1200 min). Further, the “AUC90 (area under the curve at 90 minutes)” value in data set [1] worked out at 500 µg·min/mL. In data set [1], the “Cmax,90 (maximum drug concentration through 90 minutes)” value is reported as 7 µg/mL. The Average enzalutamide concentration amounted to 0.32 µg/mL in data set [1] (0 min); 5.23 µg/mL in data set [1] (4 min); 8.04 µg/mL in data set [1] (10 min); 7.69 µg/mL in data set [1] (20 min); 8.65 µg/mL in data set [1] (40 min); 9.14 µg/mL in data set [1] (90 min). The same molecule came in with an Average enzalutamide concentration in data set [1] (1200 min) of 12.12 µg/mL. In data set [1] (Table 9.2), the AUC90 min turned out to be 740 µg·min/mL. The “Cmax,90 min” value in data set [1] (Table 9.2) turned out to be 10 µg/mL. The “Mean AUC0-inf” value in data set [2] turned out to be 62600 ng·h/mL. In addition, in data set [2], the “Bioavailability (Mean AUC0-inf/IV Mean AUC0-inf)” value is 27.1%.
`CNC(=O)c1ccc(N2C(=S)N(c3ccc(C#N)c(C(F)(F)F)c3)C(=O)C2(C)C)cc1F` [Amorphous enzalutamide, 4-{3-[4-cyano-3-(trifluoromethyl)phenyl]-5,5-dimethyl-4-oxo-2-sulfanylideneimidazolidin-1-yl}-2-fluoro-N-methylbenzamide]: the “Enzalutamide Concentration” value worked out at 0.0 µg/mL in data set [1] (0 min); 61 µg/mL in data set [1] (4 min, listed as Amorphous (spray-dried) enzalutamide); 100 µg/mL in data set [1] (10 min, listed as Amorphous (spray-dried) enzalutamide); 100 µg/mL in data set [1] (20 min, listed as Amorphous (spray-dried) enzalutamide); 110 µg/mL in data set [1] (40 min, listed as Amorphous (spray-dried) enzalutamide); 120 µg/mL in data set [1] (90 min, listed as Amorphous (spray-dried) enzalutamide). Moreover, in data set [1] (1200 min, listed as Amorphous (spray-dried) enzalutamide), the “Enzalutamide Concentration” value came to 30 µg/mL. For the same molecule, the “AUC90 (area under the curve at 90 minutes)” value in data set [1] (setting [5]) is 9,500 min*µg/mL. The “Cmax,90 (maximum drug concentration through 90 minutes)” value in data set [1] (setting [5]) is 120 µg/mL. The “crystallinity by PXRD” value in data set [3] is “completely amorphous”. The AUC90 was 8,900 min·mcg/ml in data set [4] (setting [6]) and 8,800 min·mcg/ml in data set [4] (setting [7]). Moreover, the “Cmax 90” value in data set [4] (setting [6]) was found to be 110 µg/mL; in data set [4] (setting [7]), 100 µg/mL. The “AUC90% of 0 Hr Value” in data set [4] (setting [7]) turned out to be 99%. Also, in data set [2] (setting [8]), the “Mean AUC0-inf” value stood at 132000 ng·h/mL. For the same molecule, the “Bioavailability (Mean AUC0-inf/IV Mean AUC0-inf)” value in data set [2] (setting [8]) stood at 57.1%.
